The nature of one series: in vitro. To be noted: PAMPA.
A short description of series [1]: Lipophilicity, logD of compound at pH 7.4 by chromatography. The class given is physicochemical. The conditions noted are these: buffer.
The nature of series [2]: Dissociation constant, pKa of compound. The class given is physicochemical.
Series [3] is described as follows: Unbound AUC in Wistar Han rat at 1 mg/kg, po at 7 to 24 hrs by LC-MS/MS analysis. In kind it is ADME, organism-based. To be noted: in vivo, time 7-24 hrs.
The nature of series [4]: AUC in Wistar Han rat at 1 mg/kg, po at 7 to 24 hrs by LC-MS/MS analysis. In kind it is ADME, organism-based. The conditions noted are these: in vivo, time 7-24 hrs.
Series [5] in a line: Volume of distribution at steady state in Wistar Han rat at 1 mg/kg, iv at 7 to 24 hrs by LC-MS/MS analysis. In kind it is ADME, organism-based. The conditions noted are these: in vivo, time 7-24 hrs, read-out: Vdss.
Series [6] in a line: Cmax in Wistar Han rat at 1 mg/kg, po at 7 to 24 hrs by LC-MS/MS analysis. In kind it is ADME, organism-based. The conditions noted are these: in vivo, time 7-24 hrs.
The nature of series [7]: Oral availability in Wistar Han rat at 1 mg/kg at 7 to 24 hrs by LC-MS/MS analysis. The conditions noted are these: in vivo, time 7-24 hrs. In kind it is ADME, organism-based.
Series [8] is described as follows: MRT in Wistar Han rat at 1 mg/kg, iv at 7 to 24 hrs by LC-MS/MS analysis. In kind it is ADME, organism-based. The conditions noted are these: in vivo, time 7-24 hrs.
Series [9] can be described thus: Kinetic solubility of compound by CAD analysis. To be noted: read-out: Kinetic_solubility. In kind it is physicochemical.
Series [10] is described as follows: Unbound AUC in Wistar Han rat at 2 mg/kg, po at 7 to 24 hrs by LC-MS/MS analysis. The class given is ADME, organism-based. The conditions noted are these: in vivo, time 7-24 hrs.

SMILES strings stand for the structures.

A word on the Papp: it is a coefficient for how fast a substance crosses the barrier. On to `Cc1cc(C)n(-c2cccc([C@@H](CC(=O)O)CN3CC(CCCc4ccc5c(n4)NCCC5)C3)c2)n1`, for which the Papp in “in vitro” was below 0.3 ×10⁻⁶ cm/s.

One may read the chromatographic logD as lipophilicity estimated from chromatographic retention. A low value points to lower lipophilicity. As for `COc1cc(C(CC(=O)O)CN2CC(C(F)(F)CCc3ccc4c(n3)NCCC4)C2)ccc1C#N` (racemic), the chromatographic logD in series [1] was found to be 2.9. The molecule also returned a Papp in the series “in vitro” of 5.5 ×10⁻⁶ cm/s.

`O=C(O)CC(CN1CC(C(F)(F)CCc2ccc3c(n2)NCCC3)C1)c1cccc(C2CC2)c1` (racemic): the chromatographic logD in series [1] is 3.7. For the same molecule, the Papp in “in vitro” is 43 ×10⁻⁶ cm/s.

For the molecule `COc1cc(C(CC(=O)O)CN2CC(C(F)(F)CCc3ccc4c(n3)NCCC4)C2)ccc1Cl` (racemic), in series [1], the chromatographic logD came out at 3.6. In the series “in vitro”, this molecule yielded a Papp of 28 ×10⁻⁶ cm/s.

For orientation: pKa means the pH at which an ionisable group is half protonated. `COCCOc1cccc([C@H](CC(=O)O)CN2CC(SCCc3ccc4c(n3)NCCC4)C2)c1` showed a chromatographic logD in series [1] of 2.4. In “in vitro”, this molecule had a Papp of 7.2 ×10⁻⁶ cm/s. For the same molecule, the pKa in [2] is 4.3.

In turn, `O=C(O)CC(CN1CC(C(F)(F)CCc2ccc3c(n2)NCCC3)C1)c1cccc2c1OCC2` (racemic) registered a chromatographic logD in series [1] of 3.1. Also, the Papp in “in vitro” was determined as 19 ×10⁻⁶ cm/s.

On to `COCCOc1cccc([C@@H](CC(=O)O)CN2CC(SCCc3ccc4c(n3)NCCC4)C2)c1`, for which, in series [1], the chromatographic logD was 2.4. This molecule also displayed a Papp in the series “in vitro” of 6.5 ×10⁻⁶ cm/s.

Usually AUC stands for concentration integrated over time. A lower AUC goes with low exposure. By Cmax is commonly meant the peak of the concentration-time curve. As a reminder, the bioavailability is dose-corrected exposure relative to a reference, in per cent. Lower therefore signals poor availability. As usually defined, the MRT is the average time that molecules of a dose stay in the body. `COCCOc1cccc([C@H](CC(=O)O)CN2CC(C(F)(F)CCc3ccc4c(n3)NCCC4)C2)c1`: the chromatographic logD in [1] is 3. In series [3], this molecule gave a fAUC of 38 ng·h/mL. In [4], this molecule yielded an AUC of 95 ng·h/mL. The Vd in series [5] amounted to 3 L/kg. Moreover, the Cmax in series [6] was 20.4 ng/mL. The apparent permeability coefficient (Papp) in the series “in vitro” was 8.8 ×10⁻⁶ cm/s. In addition, in series [7], the bioavailability is 17%. In series [2], this molecule had a pKa of 3.9. In series [8], this molecule displayed an MRT of 1.7 h.

Take `COCCOc1cccc(C(CC(=O)O)CN2CC(OCc3ccc4c(n3)NCCC4)C2)c1` (racemic): in [1], the chromatographic logD was determined as 2. This molecule showed a Papp in the series “in vitro” below 0.3 ×10⁻⁶ cm/s. This molecule also gave a pKa in series [2] of 4.

In series [1], `O=C(O)CC(CN1CC(C(F)(F)CCc2ccc3c(n2)NCCC3)C1)c1cccc(O[C@H]2CCOC2)c1` (mixture of isomers) yielded a chromatographic logD of 2.9. Moreover, in the series “in vitro”, the Papp was 6.3 ×10⁻⁶ cm/s.

In [1], `COc1ccc(F)c(C(CC(=O)O)CN2CC(C(F)(F)CCc3ccc4c(n3)NCCC4)C2)c1` (racemic) came in with a chromatographic logD of 3.3. Further, in [3], the fAUC turned out to be 163 ng·h/mL. Also, in series [4], the AUC is 2460 ng·h/mL. The Vd in [5] was 1.6 L/kg. In series [6], this molecule displayed a Cmax of 739 ng/mL. The same molecule came in with a Papp in the series “in vitro” of 25 ×10⁻⁶ cm/s. For the same molecule, the bioavailability in series [7] stood at 91%. Further, in series [8], the MRT was 4.2 h.

Turning to `O=C(O)CC(CN1CC(C(F)(F)CCc2ccc3c(n2)NCCC3)C1)c1cccc(O[C@@H]2CCOC2)c1` (mixture of isomers), the chromatographic logD in series [1] was 2.8. This molecule also came in with a Papp in “in vitro” of 8.2 ×10⁻⁶ cm/s.

`O=C(O)C[C@H](CN1CC(CCc2ccc3c(n2)NCCC3)C1)c1cccc(N2CCOCC2)c1` gave a Papp in “in vitro” below 0.3 ×10⁻⁶ cm/s.

`COc1cc(C(CC(=O)O)CN2CC(C(F)(F)CCc3ccc4c(n3)NCCC4)C2)ccc1F` (racemic) showed a chromatographic logD in series [1] of 3.2. This molecule yielded a fAUC in [3] of 212 ng·h/mL. This molecule registered an AUC in series [4] of 1370 ng·h/mL. The Vd in [5] is 2.4 L/kg. Also, in [6], the Cmax was determined as 313 ng/mL. The molecule also registered a Papp in “in vitro” of 23 ×10⁻⁶ cm/s. Besides, in series [7], the bioavailability came to 79%. For the same molecule, in series [8], the MRT was 3.8 h.

The molecule `O=C(O)CC(CN1CC(C(F)(F)CCc2ccc3c(n2)NCCC3)C1)c1ccc2c(c1)OCC2` (racemic) displayed a chromatographic logD in [1] of 3. This molecule also yielded a Papp in “in vitro” of 16 ×10⁻⁶ cm/s.

In the case of `Cc1cc(C)n(-c2cccc(C(CC(=O)O)CN3CC(C(F)(F)CCc4ccc5c(n4)NCCC5)C3)c2)n1` (racemic), the chromatographic logD in series [1] stood at 3.3. The same molecule yielded a fAUC in series [3] of 0.6 ng·h/mL. For the same molecule, the AUC in series [4] amounted to 14 ng·h/mL. Moreover, the Vd in series [5] amounted to 0.7 L/kg. Besides, the highest level in [6] (Cmax) was 12.4 ng/mL. In the series “in vitro”, the Papp was 13 ×10⁻⁶ cm/s. The molecule further had a bioavailability in series [7] of 3%. In series [8], the MRT turned out to be 0.2 h.

Molecule `O=C(O)CC(CN1CC(C(F)(F)CCc2ccc3c(n2)NCCC3)C1)c1cccc(N2CCOCC2)c1` (racemic) had a chromatographic logD in series [1] of 2.7. Further, the Papp in “in vitro” amounted to 5.5 ×10⁻⁶ cm/s.

Molecule `O=C(O)C[C@H](CN1CC[C@@H](CCc2ccc3c(n2)NCCC3)C1)c1cccc(N2CCOCC2)c1` registered a Papp in the series “in vitro” of 2.7 ×10⁻⁶ cm/s.

Consider `O=C(O)CC(CN1CC(C(F)(F)CCc2ccc3c(n2)NCCC3)C1)c1ccccc1` (racemic), for which, in [1], the chromatographic logD was 3. The molecule also came in with a Papp in the series “in vitro” of 21 ×10⁻⁶ cm/s.

For the molecule `O=C(O)CC(CN1CC(C(F)(F)CCc2ccc3c(n2)NCCC3)C1)c1ccnc(C2CC2)c1` (racemic), the chromatographic logD in series [1] turned out to be 2.5. The molecule also registered a Papp in the series “in vitro” of 7.4 ×10⁻⁶ cm/s.

Turning to `COc1cccc(C(CC(=O)O)CN2CC(C(F)(F)CCc3ccc4c(n3)NCCC4)C2)c1I` (racemic), the chromatographic logD in series [1] amounted to 3. This molecule displayed an apparent permeability (Papp) in the series “in vitro” of 15 ×10⁻⁶ cm/s.

On to `O=C(O)CC(CN1CC(C(F)(F)CCc2ccc3c(n2)NCCC3)C1)c1cccc(OC2CCOCC2)c1` (racemic), for which, in [1], the chromatographic logD came out at 3.1. This molecule yielded an apparent permeability (Papp) in the series “in vitro” of 8.9 ×10⁻⁶ cm/s.

In turn, `COc1ncc(C(CC(=O)O)CN2CC(C(F)(F)CCc3ccc4c(n3)NCCC4)C2)cc1C` (racemic) returned a chromatographic logD in [1] of 2.7. For the same molecule, the fAUC in series [3] was found to be 152 ng·h/mL. Besides, the AUC in series [4] amounted to 1510 ng·h/mL. Further, the Vd in series [5] amounted to 1.1 L/kg. This molecule came in with a Cmax in [6] of 496 ng/mL. Besides, the solubility kinetic in series [9] is at least 118 µg/mL. For the same molecule, the Papp in the series “in vitro” turned out to be 10.2 ×10⁻⁶ cm/s. This molecule also returned a bioavailability in series [7] of 57%. For the same molecule, the MRT in series [8] was found to be 2.9 h.

As for `O=C(O)CC(CN1CC(C(F)(F)CCc2ccc3c(n2)NCCC3)C1)c1ccnc(OC2CC2)c1` (racemic), the chromatographic logD in [1] was 2.7. Further, in “in vitro”, the Papp came to 10.4 ×10⁻⁶ cm/s.

As for `O=C(O)CC(CN1CC(C(F)(F)CCc2ccc3c(n2)NCCC3)C1)c1cccc(OC2CC2)c1` (racemic), the chromatographic logD in [1] was 3.5. The Papp in the series “in vitro” stood at 39 ×10⁻⁶ cm/s.

`CCOc1cccc(C(CC(=O)O)CN2CC(C(F)(F)CCc3ccc4c(n3)NCCC4)C2)c1` (racemic) returned a chromatographic logD in [1] of 3.4. In “in vitro”, the Papp was 21 ×10⁻⁶ cm/s.

For the molecule `Cc1cc(C)n(-c2cccc([C@H](CC(=O)O)CN3CC(CCCc4ccc5c(n4)NCCC5)C3)c2)n1`, in the series “in vitro”, the Papp is below 1 ×10⁻⁶ cm/s.

`COc1cc([C@H](CC(=O)O)CN2CC(C(F)(F)CCc3ccc4c(n3)NCCC4)C2)ccc1F`: the chromatographic logD in series [1] was 3.1. The same molecule yielded a fAUC in series [3] of 135 ng·h/mL. In addition, in [4], the AUC is 881 ng·h/mL. For the same molecule, the Vd in series [5] is 4.6 L/kg. In addition, in series [9], the solubility kinetic is at least 159 µg/mL. Moreover, in “in vitro”, the Papp worked out at 16.3 ×10⁻⁶ cm/s. Besides, the bioavailability in series [7] was 94%. Further, the pKa in series [2] was found to be 4. The molecule also returned an MRT in series [8] of 3.1 h.

Consider `COc1cccc(C(CC(=O)O)CN2CC(C(F)(F)CCc3ccc4c(n3)NCCC4)C2)c1` (racemic), for which the chromatographic logD in series [1] amounted to 3. Moreover, in the series “in vitro”, the Papp is 20 ×10⁻⁶ cm/s.

Take `COCCOc1cccc([C@H](CC(=O)O)CN2CC[C@@](F)(CCc3ccc4c(n3)NCCC4)C2)c1`: the chromatographic logD in series [1] was determined as 2.9. Besides, the Vd in series [5] was 3.6 L/kg. This molecule registered a Cmax in series [6] of 530 ng/mL. The solubility kinetic in series [9] is at least 238 µg/mL. Also, the Papp in the series “in vitro” came to 14.6 ×10⁻⁶ cm/s. In addition, in [7], the bioavailability was found to be 93%. This molecule also yielded a pKa in series [2] of 4.1. Moreover, the mean residence time (MRT) in series [8] came to 3 h. For the same molecule, the fAUC in series [10] turned out to be 280 ng·h/mL.

`COCCOc1cccc([C@@H](CC(=O)O)CN2CC(C(F)(F)CCc3ccc4c(n3)NCCC4)C2)c1` returned a chromatographic logD in series [1] of 3. The Papp in “in vitro” worked out at 3.2 ×10⁻⁶ cm/s.
